How the values were obtained:
VHZ (LDP3) = target: T1, VHZ (LDP3) (Homo sapiens, UniProt Q9BVJ7); assay: inhibition of pNPP hydrolysis, competitive model fit; format: biochemical
T1 sequence (Q9BVJ7 1-150): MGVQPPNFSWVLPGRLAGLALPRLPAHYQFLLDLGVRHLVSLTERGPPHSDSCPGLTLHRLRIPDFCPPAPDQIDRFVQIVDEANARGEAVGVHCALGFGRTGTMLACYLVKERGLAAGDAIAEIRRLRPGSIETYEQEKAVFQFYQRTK

VHR [1] = target: T2, VHR (Homo sapiens, UniProt P51452); assay: pre-steady-state burst kinetics, stopped flow at […] nm; format: biochemical; settings: read-out: KS
T2 sequence (P51452 whole entry): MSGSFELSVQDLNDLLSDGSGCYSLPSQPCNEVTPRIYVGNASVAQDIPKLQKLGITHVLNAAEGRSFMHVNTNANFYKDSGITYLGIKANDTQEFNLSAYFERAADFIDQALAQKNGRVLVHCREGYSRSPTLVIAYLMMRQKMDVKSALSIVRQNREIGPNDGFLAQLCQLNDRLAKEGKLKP

SsoPTP = target: T3, SsoPTP (Saccharolobus solfataricus, UniProt Q97VZ7); assay: biochemical
T3 sequence (Q97VZ7 1-161): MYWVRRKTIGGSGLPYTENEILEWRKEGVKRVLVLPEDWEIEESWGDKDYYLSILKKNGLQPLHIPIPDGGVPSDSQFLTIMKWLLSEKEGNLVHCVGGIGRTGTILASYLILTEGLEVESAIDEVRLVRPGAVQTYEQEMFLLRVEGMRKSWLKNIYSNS

VHR [2] = target: T2, VHR; assay: biochemical
PTP1B = PTP1B (Homo sapiens, UniProt P18031); assay: biochemical
Chain of PTP1B (P18031 1-321 limits assumed): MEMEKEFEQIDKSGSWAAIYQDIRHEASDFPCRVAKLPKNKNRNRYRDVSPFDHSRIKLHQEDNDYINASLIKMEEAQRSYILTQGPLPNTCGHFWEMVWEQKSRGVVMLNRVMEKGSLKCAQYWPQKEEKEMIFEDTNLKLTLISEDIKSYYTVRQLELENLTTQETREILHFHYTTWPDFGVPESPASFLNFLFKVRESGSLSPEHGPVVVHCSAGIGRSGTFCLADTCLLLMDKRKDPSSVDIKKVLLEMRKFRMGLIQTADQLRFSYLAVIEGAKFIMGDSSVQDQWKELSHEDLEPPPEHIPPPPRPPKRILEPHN

Structure (SMILES) | Ki (VHZ (LDP3)) | other results
[O]=[V]([OH])([OH])[OH] [Vanadate] | 0.0027 ± 0.0003 mM | 
O=[N+]([O-])c1ccc(OP(=O)(O)O)cc1 [pNPP] |  | Kd (VHR [1]): 11.8 mM
O=S(=O)(O)CCN1CCN(CCO)CC1 [HEPES] | 26 ± 3 mM | 
O=S(=O)(O)O [Sulfate] | 4.6 ± 0.3 mM | 
O=C(O)CN(CCN(CC(=O)O)CC(=O)O)CC(=O)O [EDTA] | 22 ± 2 mM | 
NC(CO)(CO)CO [Tris] | 88 ± 9 mM | 
O=P(O)(O)O [Inorganic phosphate] | 0.67 ± 0.05 mM | Ki (YopH): 4.4 ± 0.2 mM; Ki (SsoPTP): 540 ± 420 µM; Ki (VHR [2]): 700 ± 300 µM; Ki (PTP1B): 3.7 ± 0.1 mM
